Tests used:
Experiment in all cases: PK/LDH-coupled NADH oxidation at […] nm
Assay type in all cases: biochemical
[1] = molecular target: T1, NAGK (N-acetyl glutamate kinase, Arg6) (Saccharomyces cerevisiae, UniProt Q01217, C119Y)
T1 construct: gene ARG5

[2] = molecular target: T2, NAGK (N-acetyl glutamate kinase, Arg6) (Saccharomyces cerevisiae, UniProt Q01217, T340R)
T2 construct: gene ARG5

[3] = molecular target: T3, NAGK (N-acetyl glutamate kinase, Arg6) (Saccharomyces cerevisiae, UniProt Q01217, T340S)
T3 construct: gene ARG5

[4] = molecular target: T4, NAGK (N-acetyl glutamate kinase, Arg6) (Saccharomyces cerevisiae, UniProt Q01217, V267A)
T4 construct: gene ARG5

[5] = molecular target: T5, NAGK (N-acetyl glutamate kinase, Arg6) (Saccharomyces cerevisiae, UniProt Q01217, T340A)
T5 construct: gene ARG5

[6] = molecular target: T6, NAGK (N-acetyl glutamate kinase, Arg6) (Saccharomyces cerevisiae, UniProt Q01217, T340L)
T6 construct: gene ARG5

[7] = molecular target: T7, NAGK (N-acetyl glutamate kinase, Arg6) (Saccharomyces cerevisiae, UniProt Q01217)
T7 construct: gene ARG5

[8] = molecular target: T8, NAGK (N-acetyl glutamate kinase, Arg6) (Saccharomyces cerevisiae, UniProt Q01217, T340N)
T8 construct: gene ARG5

[9] = molecular target: T9, NAGK (N-acetyl glutamate kinase, Arg6) (Saccharomyces cerevisiae, UniProt Q01217, T340E)
T9 construct: gene ARG5
T9 sequence (Q01217 58-513 T340E): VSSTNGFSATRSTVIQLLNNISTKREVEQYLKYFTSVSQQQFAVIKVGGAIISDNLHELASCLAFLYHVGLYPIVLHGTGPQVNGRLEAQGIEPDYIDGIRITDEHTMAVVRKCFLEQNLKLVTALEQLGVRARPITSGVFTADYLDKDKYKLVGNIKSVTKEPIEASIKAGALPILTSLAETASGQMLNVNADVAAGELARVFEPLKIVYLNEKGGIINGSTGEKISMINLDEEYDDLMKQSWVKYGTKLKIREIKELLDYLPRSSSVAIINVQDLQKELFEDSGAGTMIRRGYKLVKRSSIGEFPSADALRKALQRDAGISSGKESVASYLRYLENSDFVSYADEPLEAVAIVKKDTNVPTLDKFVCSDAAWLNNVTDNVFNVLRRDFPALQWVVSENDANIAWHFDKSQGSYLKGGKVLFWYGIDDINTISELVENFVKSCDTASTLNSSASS

T8 sequence (Q01217 58-513 T340N): as the sequence (Q01217 58-513 T340E) above, with E283N counted along it
T1 sequence (Q01217 58-513 C119Y): as the sequence (Q01217 58-513 T340E) above, with C62Y, E283T counted along it
T5 sequence (Q01217 58-513 T340A): as the sequence (Q01217 58-513 T340E) above, with E283A counted along it
T3 sequence (Q01217 58-513 T340S): as the sequence (Q01217 58-513 T340E) above, with E283S counted along it
T2 sequence (Q01217 58-513 T340R): as the sequence (Q01217 58-513 T340E) above, with E283R counted along it
T6 sequence (Q01217 58-513 T340L): as the sequence (Q01217 58-513 T340E) above, with E283L counted along it
T4 sequence (Q01217 58-513 V267A): as the sequence (Q01217 58-513 T340E) above, with V210A, E283T counted along it
T7 sequence (Q01217 58-513): as the sequence (Q01217 58-513 T340E) above, with E283T counted along it

N=C(N)NCCC[C@H](N)C(=O)O [arginine]
IC50 [1]: 780 ± 50 µM | IC50 [2]: 2480 ± 670 µM | IC50 [3]: 170 ± 120 µM | IC50 [4]: 2830 ± 160 µM | IC50 [5]: 2250 ± 200 µM | IC50 [6]: 10500 ± 800 µM | IC50 [7]: 90 µM | IC50 [8]: 24000 ± 5360 µM | IC50 [9]: 6870 ± 1000 µM
